pIC50: −log10 of the molar value.
Tests used:
[1] = system: Huh7 (human liver carcinoma cell line); assay: Cell Proliferation ELISA, BrdU; type: cell-based; conditions: highest concentration 1 mM
Procedure: (§1) The following cell lines are used for determination of cytotoxicity: • CaCo2 (human colon carcinoma cell line) • Huh7 (human liver carcinoma cell line).
(§2) Cells are cultivated in DMEM/10% FCS at 37° C. and 5% CO2 in a 96 well plate with an initial seeding density of 2×10^4 cells/well.
(§3) Transglutaminase inhibitors are added to the cells with final concentrations from 0.1 μM to 1 mM one hour after seeding. The different inhibitor dilutions are prepared in DMSO, resulting in a final concentration of 1% (v/v) DMSO in every well (2 μl inhibitor in 200 μl cell culture medium). Cycloheximide (2.5 μg/ml) and Camptothecin (0.2 μg/ml) are used as control compounds. All measurements are performed in triplicates.
(§4) Determination of proliferation using Cell Proliferation ELISA, BrdU (Roche, Cat. No. 11647229001).
(§5) After 24 h of incubation with inhibitors or controls, BrdU is added to the cells. After further incubation for 18 h, the cells are fixed and cellular DNA becomes denatured. A monoclonal antibody (conjugated with peroxidase) raised against BrdU is added to the wells and binds to BrdU which is incorporated into the DNA. Substrate solution is added and absorbance at 450 nm is recorded. Further analysis is performed according to the manufacturer's protocol.

[2] = system: CaCo2 (human colon carcinoma cell line); assay: Cell Proliferation ELISA, BrdU; type: cell-based; conditions: highest concentration 1 mM
Procedure: as §1, §2, §3, §4, §5

[3] = target: T1, recombinant human factor XIII A-subunit (rhFXIII-A, plasma transglutaminase) (Homo sapiens, UniProt P00488); assay: Inhibition of rec. human coagulation factor XIII (fluorescence, Abz-NE(CAD-DNP)EQVSPLILLK-OH); type: biochemical; conditions: Table 1, selectivity with respect to FXIII; read-out: IC50 FXIII
T1 construct: His6; purchased Zedira 1027 (so in the source); T027)
T1 sequence (P00488 39-732 limits assumed): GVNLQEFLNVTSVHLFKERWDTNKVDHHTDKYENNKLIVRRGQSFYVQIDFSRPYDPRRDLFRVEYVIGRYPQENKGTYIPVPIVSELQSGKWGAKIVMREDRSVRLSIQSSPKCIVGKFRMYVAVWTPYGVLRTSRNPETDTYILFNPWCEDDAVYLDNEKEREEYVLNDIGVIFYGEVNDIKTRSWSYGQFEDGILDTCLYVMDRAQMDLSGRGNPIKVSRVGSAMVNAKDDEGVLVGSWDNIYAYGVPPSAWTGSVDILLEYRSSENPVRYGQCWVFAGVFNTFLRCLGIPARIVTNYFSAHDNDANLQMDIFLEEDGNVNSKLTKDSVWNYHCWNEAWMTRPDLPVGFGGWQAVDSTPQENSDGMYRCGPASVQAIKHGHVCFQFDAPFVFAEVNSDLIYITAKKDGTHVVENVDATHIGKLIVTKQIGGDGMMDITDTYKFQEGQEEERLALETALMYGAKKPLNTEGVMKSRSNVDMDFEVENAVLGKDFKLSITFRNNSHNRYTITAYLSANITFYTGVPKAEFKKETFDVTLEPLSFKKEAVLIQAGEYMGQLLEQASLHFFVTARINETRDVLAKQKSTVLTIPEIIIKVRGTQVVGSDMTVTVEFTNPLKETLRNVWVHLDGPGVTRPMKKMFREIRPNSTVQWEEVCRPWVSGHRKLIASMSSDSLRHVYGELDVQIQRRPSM
In short: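 His6-rhFXIII activated by human alpha thrombin in Tris buffer pH 7.4 with 7.5 mM CaCl2, 5 mM DTT, 13.4 mM glycine methylester and 50 μM quenched peptide substrate. Fluorescence (ex 313, em 418 nm) followed at 37 °C for 35 min; IC50 from slope between 20 and 30 min versus 2% DMSO control.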

pIC50 [3] | Compound | Cytotoxicity concentration (>10% deviation from negative control), BrdU, Huh-7 [1] [mM] | Cytotoxicity concentration (>10% deviation from negative control), BrdU, Caco2 [2] [mM]
< 4.00 | COC(=O)[C@H](CC(C)C)NC(=O)[C@@H]1CCCN1C(=O)[C@@H](NC(=O)[C@H](CCC(=O)C(N)=O)NC(=O)OCc1ccccc1)C(C)C [Compound E02, (S)-methyl 2-((S)-1-((S)-2-((S)-6-amino-2-(benzyloxycarbonylamino)-5,6-dioxo-hexanamido)-3-methylbutanoyl)pyrrolidine-2-carboxamido)-4-methylpentanoate] | >1 | >1
< 4.00 | CC(=O)N[C@@H](CCC(=O)C(N)=O)C(=O)N1CCN(c2ccccc2Cl)CC1 [Compound E06, (S)-5-acetamido-6-(4-(2-chlorophenyl)piperazin-1-yl)-2,6-dioxohexanamide] | >1 | >1
< 4.00 | CC(=O)N1CCC[C@H]1C(=O)N[C@@H](CCC(=O)C(N)=O)C(=O)N1CCN(c2ncccc2C)CC1 [Compound E07, (S)-1-acetyl-N—((S)-6-amino-1-(4-(3-methylpyridin-2-yl)piperazin-1-yl)-1,5,6-trioxohexan-2-yl)pyrrolidine-2-carboxamide] | >1 | >1

From patent US11072634B2, “Inhibitors of transglutaminases” (Zedira GmbH, priority 2016, dated 2021)
